Holding throughout (type): cell-based
In one assay the test system is MV-4-11 cells. Briefly: AML cell viability assay (RealTime-Glo). As to conditions: Homo sapiens, MV4-11, IC50 class, MV-4-11 cells, read-out: Cell viability classification.
In assay [1] the target is T1, CK1α (Homo sapiens, UniProt P48729+Q96SW2). Briefly: CK1α degradation, Jess assay in MV-4-11 cells. As to conditions: MV4-11, % reduction of CK1α compared to DMSO, MV-4-11 cells for 16 hours, normalized to β-actin, read-out: CK1α degradation classification. More on the design: CK1α levels were determined in MV-4-11 cells using Jess (Protein Simple); host or cells: MV-4-11; dose or concentration left out as unconfirmed. As for the experimental part: (§1) MM.1S and NCCIT cells were obtained from ATCC and grown in RPMI-1640 supplemented with 10% FBS. MV-4-11 cells were obtained from ATCC and grown in IMDM supplemented with 10% FBS. The cells were maintained at 37° C. under 5% CO2.
T1 sequence (P48729 whole entry): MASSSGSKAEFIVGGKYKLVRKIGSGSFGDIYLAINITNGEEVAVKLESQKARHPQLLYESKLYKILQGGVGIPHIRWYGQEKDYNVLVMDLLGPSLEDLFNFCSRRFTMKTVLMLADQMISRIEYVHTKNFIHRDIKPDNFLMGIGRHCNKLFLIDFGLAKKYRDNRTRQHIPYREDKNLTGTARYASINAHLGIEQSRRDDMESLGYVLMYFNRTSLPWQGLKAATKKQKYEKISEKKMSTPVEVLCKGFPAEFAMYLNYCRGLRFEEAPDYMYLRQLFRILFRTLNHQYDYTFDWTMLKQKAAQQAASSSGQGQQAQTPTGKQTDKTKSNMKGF
T1 sequence (Q96SW2 whole entry): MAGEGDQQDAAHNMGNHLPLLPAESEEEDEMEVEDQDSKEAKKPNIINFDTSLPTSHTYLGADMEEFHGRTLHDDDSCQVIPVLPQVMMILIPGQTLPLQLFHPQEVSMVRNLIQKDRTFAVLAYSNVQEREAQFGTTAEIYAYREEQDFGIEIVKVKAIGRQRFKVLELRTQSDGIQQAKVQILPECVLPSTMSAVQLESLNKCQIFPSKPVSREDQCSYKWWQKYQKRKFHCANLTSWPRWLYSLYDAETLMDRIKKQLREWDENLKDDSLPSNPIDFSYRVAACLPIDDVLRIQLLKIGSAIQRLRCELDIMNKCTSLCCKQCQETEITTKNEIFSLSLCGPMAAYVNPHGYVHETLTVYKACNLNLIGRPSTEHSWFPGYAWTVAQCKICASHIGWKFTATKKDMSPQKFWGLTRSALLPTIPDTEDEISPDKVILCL
T1 sequence (Q16531 whole entry partner): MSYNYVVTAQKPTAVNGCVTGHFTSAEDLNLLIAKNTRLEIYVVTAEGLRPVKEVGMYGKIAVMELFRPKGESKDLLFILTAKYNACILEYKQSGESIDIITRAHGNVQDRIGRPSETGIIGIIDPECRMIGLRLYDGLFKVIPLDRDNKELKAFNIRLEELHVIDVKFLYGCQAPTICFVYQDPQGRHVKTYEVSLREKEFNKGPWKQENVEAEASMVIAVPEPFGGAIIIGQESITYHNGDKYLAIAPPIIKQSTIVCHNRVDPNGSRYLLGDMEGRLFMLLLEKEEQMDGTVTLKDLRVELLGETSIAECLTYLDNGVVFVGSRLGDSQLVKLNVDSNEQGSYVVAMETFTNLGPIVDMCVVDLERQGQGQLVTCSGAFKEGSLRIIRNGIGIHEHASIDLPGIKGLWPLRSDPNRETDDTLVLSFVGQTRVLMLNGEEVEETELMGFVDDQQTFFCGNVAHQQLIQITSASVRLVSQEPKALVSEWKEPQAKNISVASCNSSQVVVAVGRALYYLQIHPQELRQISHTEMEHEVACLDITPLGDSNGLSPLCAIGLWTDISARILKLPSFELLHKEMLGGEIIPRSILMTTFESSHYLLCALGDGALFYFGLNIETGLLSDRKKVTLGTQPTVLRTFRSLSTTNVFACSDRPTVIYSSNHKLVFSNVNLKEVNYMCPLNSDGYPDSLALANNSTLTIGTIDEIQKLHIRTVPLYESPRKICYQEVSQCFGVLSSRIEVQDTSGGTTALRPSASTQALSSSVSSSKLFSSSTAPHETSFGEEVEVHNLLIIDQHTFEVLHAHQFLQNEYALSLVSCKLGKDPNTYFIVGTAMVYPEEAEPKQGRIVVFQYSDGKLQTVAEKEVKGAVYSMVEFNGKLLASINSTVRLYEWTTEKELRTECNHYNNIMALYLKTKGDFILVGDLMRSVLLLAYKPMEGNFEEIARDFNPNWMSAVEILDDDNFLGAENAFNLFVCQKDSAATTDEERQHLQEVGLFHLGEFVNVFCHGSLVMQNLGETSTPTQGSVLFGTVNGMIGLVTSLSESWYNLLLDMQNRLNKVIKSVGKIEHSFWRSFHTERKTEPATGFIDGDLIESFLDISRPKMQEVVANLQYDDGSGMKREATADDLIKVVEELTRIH
Compounds of the present disclosure was added to cells (final DMSO concentration of 0.1%) and incubated for 16 hours. CK1α levels were determined in MV-4-11 cells using Jess (Protein Simple). Briefly, whole cell lysates were prepared in lysis buffer (1×RIPA buffer [Thermo, 89900], 2 mM MgCl2 [Sigma, M1028], 0.05% Benzonase [Sigma, E1014], 1× Pierce protease inhibitor tablets EDTA-free [Thermo, A32965]). 6-20 μg of the lysates were analyzed using Jess with antibodies against CK1α (Abcam, ab108296) and β-actin (R&D Systems, MAB8929). Protein levels were normalized to β-actin levels. DC50 values were obtained using four-parameter non-linear regressions using Prism (GraphPad).
The efficacy of CK1α degradation of a part of compounds of the present disclosure was determined by treating MV-4-11 cells at […] (final DMSO concentration of 0.1%) for 16 hours. CK1α levels were determined using Jess and normalized to β-actin levels. The compounds are classified based on amount of CK1α degradation (% reduction of CK1α compared to DMSO) as follows. • A: Degradation is greater than or equal to 75%; • B: Degradation is less than […] & greater than or equal to 50%; • C: Degradation is less than […]; • ND: not determined.

Assay [2] has as its target T1, CK1α. The experiment in a line: CK1α degradation, Western blot in MV-4-11 cells. More on the design: CK1α levels were determined in MV-4-11 cells using Jess (Protein Simple); host or cells: MV-4-11. As to conditions: % reduction of CK1α compared to DMSO, MV4-11 cells at 1 μM for 4 hours, read-out: CK1α degradation classification. How it is done: as §1
Compounds of the present disclosure was added to cells (final DMSO concentration of 0.1%) and incubated for 4 hours. CK1α levels were determined in MV-4-11 cells using Western blot analysis. Whole cell lysates were prepared in lysis buffer (1×RIPA buffer [Thermo, 89900], 2 mM MgCl2 [Sigma, M1028], 0.05% Benzonase [Sigma, E1014], 1× Pierce protease inhibitor tablets EDTA-free [Thermo, A32965]). […] of the lysates were analyzed using Western blot with antibodies against CK1α (Abcam, ab108296) and β-actin (R&D Systems, MAB8929).
The efficacy of CK1α degradation of other part of compounds of the present disclosure was determined by treating MV4-11 cells at 1 μM (Final DMSO concentration of 0.1%) for 4 hours. Protein levels relative to DMSO are calculated for CK1α. The compounds are classified based on the amount of CK1α degradation (% reduction of CK1α compared to DMSO) as follows. • A: Degradation is greater than or equal to 75%; • B: Degradation is less than 75% & greater than or equal to 50%; • C: Degradation is less than […]; • ND: not determined.
(A western blot detects proteins with antibodies after separation by electrophoresis.)

[3] abbreviates: RealTime-Glo after 44 hrs of treatment (TABLE 1).
[4] abbreviates: RealTime-Glo after 44 hrs of treatment (TABLE 4).

This passage reports IC50 and Dmax results from patent US20250188069A1, “COMPOUNDS AND METHODS FOR DEGRADING CASEIN KINASE 1 ALPHA” (PIN THERAPEUTICS, INC., priority 2022, published 2025).

Structures can show the parent of a compound that is named as a salt. Where two headings read alike, the source gives them in different places.

As for `N[C@H]1CC[C@H](N(CCCc2ccccc2)c2cccc3c2CN(C2CCC(=O)NC2=O)C3=O)CC1` (stereo partly shown) [Compound 251, 3-(4-(((1r,4r)-4-aminocyclohexyl)(3-phenylpropyl)amino)-1-oxoisoindolin-2-yl)piperidine-2,6-dione hydrochloride], the IC50 with MV-4-11 cells (setting [3]) was < 100 nM. For the same compound, the Dmax at CK1α [1] was > 75%.

As for `CCCCCN(c1cccc2c1CN(C1CCC(=O)NC1=O)C2=O)[C@@H]1CC[C@@H](N)C1` (stereo partly drawn) [Compound 323, 3-(4-(((1R,3R)-3-aminocyclopentyl)(pentyl)amino)-1-oxoisoindolin-2-yl)piperidine-2,6-dione], the IC50 in the assay with MV-4-11 cells (setting [3]) was < 100 nM. Also, the Dmax on CK1α [1] was > 75%.

For `CCCCCN(c1cccc2c1CN(C1CCC(=O)NC1=O)C2=O)[C@@H]1CC[C@H](N)C1` (stereo partly drawn) [Compound 324, 3-(4-(((1R,3S)-3-aminocyclopentyl)(pentyl)amino)-1-oxoisoindolin-2-yl)piperidine-2,6-dione], the IC50 in the assay on MV-4-11 cells (setting [3]) was < 100 nM. Besides, the Dmax on CK1α [1] is > 75%.

For the compound `NC[C@H]1CC[C@@H](N(CCCC2CCOCC2)c2cccc3c2CN(C2CCC(=O)NC2=O)C3=O)CC1` (stereo partly shown) [Compound 333, 3-(4-(((1s,4s)-4-(aminomethyl)cyclohexyl)(3-(tetrahydro-2H-pyran-4-yl)propyl)amino)-1-oxoisoindolin-2-yl)piperidine-2,6-dione], the IC50 with MV-4-11 cells (setting [3]) is < 100 nM. Moreover, the Dmax on CK1α [1] is > 75%.

On to `NC[C@H]1CC[C@@H](N(CCC2CC2)c2cccc3c2CN(C2CCC(=O)NC2=O)C3=O)CC1` (stereo partly shown) [Compound 358, 3-(4-(((1s,4s)-4-(aminomethyl)cyclohexyl)(2-cyclopropylethyl)amino)-1-oxoisoindolin-2-yl)piperidine-2,6-dione], for which, in the assay with MV-4-11 cells (setting [3]), the IC50 is < 100 nM. For the same compound, the Dmax at CK1α [1] was > 75%.

For `O=C1CCC(N2Cc3c(cccc3N(CCC3CC3)[C@H]3C[C@@H](c4nnc[nH]4)C3)C2=O)C(=O)N1` (stereo partly shown) [Compound 603, 3-{4-[(2-cyclopropylethyl)[(1s,3s)-3-(4H-1,2,4-triazol-3-yl)cyclobutyl]amino]-1-oxo-3H-isoindol-2-yl}piperidine-2,6-dione; formate], the IC50 in the assay with MV-4-11 cells (setting [4]) is < 100 nM. Moreover, the Dmax at 1 µM on CK1α [2] is > 75%.

Take `O=C1CCC(N2Cc3c(cccc3N(CCC3CC3)[C@H]3C[C@H](c4nnc[nH]4)C3)C2=O)C(=O)N1` (stereo partly shown) [Compound 604, 3-{4-[(2-cyclopropylethyl)[(1s,3s)-3-(4H-1,2,4-triazol-3-yl)cyclobutyl]amino]-1-oxo-3H-isoindol-2-yl}piperidine-2,6-dione; formate]: the IC50 in the assay on MV-4-11 cells (setting [4]) is < 100 nM. The Dmax at 1 µM at CK1α [2] is > 75%.

Take `O=C1CCC(N2Cc3c(cccc3N(CCC3CC3)[C@H]3CC[C@H](NCC4(F)CC4)CC3)C2=O)C(=O)N1` (stereo partly shown) [Compound 612, 3-{4-[(2-cyclopropylethyl)[(1r,4r)-4-{[(1-fluorocyclopropyl)methyl]amino}cyclohexyl]amino]-1-oxo-3H-isoindol-2-yl}piperidine-2,6-dione]: in the assay with MV-4-11 cells (setting [4]), the IC50 is < 100 nM. In addition, at CK1α [2], the Dmax at 1 µM is > 75%.

Consider `O=C1CCC(N2Cc3c(cccc3N(CCC3CC3)[C@H]3CC[C@H](NCC4(F)CCC4)CC3)C2=O)C(=O)N1` (stereo partly shown) [Compound 613, 3-{4-[(2-cyclopropylethyl)[(1r,4r)-4-{[(1-fluorocyclobutyl)methyl]amino}cyclohexyl]amino]-1-oxo-3H-isoindol-2-yl}piperidine-2,6-dione], for which the IC50 in the assay on MV-4-11 cells (setting [4]) is < 100 nM. Moreover, on CK1α [2], the Dmax at 1 µM was > 75%.

As to `CS(=O)(=O)C1(CN[C@H]2CC[C@H](N(CCC3CC3)c3cccc4c3CN(C3CCC(=O)NC3=O)C4=O)CC2)CC1` (stereo partly shown) [Compound 615, 3-{4-[(2-cyclopropylethyl)[(1r,4r)-4-{[(1-methanesulfonylcyclopropyl)methyl]amino}cyclohexyl]amino]-1-oxo-3H-isoindol-2-yl}piperidine-2,6-dione; trifluoroacetate], the IC50 with MV-4-11 cells (setting [4]) is < 100 nM. In addition, the Dmax at 1 µM on CK1α [2] was > 75%.

As to `O=C1CCC(N2Cc3c(cccc3N(CCC3CC3)[C@H]3CC[C@H](NCC4(F)COC4)CC3)C2=O)C(=O)N1` (stereo partly shown) [Compound 616, 3-{4-[(2-cyclopropylethyl)[(1r,4r)-4-{[(3-fluorooxetan-3-yl)methyl]amino}cyclohexyl]amino]-1-oxo-3H-isoindol-2-yl}piperidine-2,6-dione; trifluoro acetate], the IC50 with MV-4-11 cells (setting [4]) is < 100 nM. Also, the Dmax at 1 µM on CK1α [2] was > 75%.

`C[C@]1(N)CC[C@H](N(CCC2CC2)c2cccc3c2CN(C2CCC(=O)NC2=O)C3=O)CC1` (stereo partly shown) [Compound 634, 3-{4-[(2-cyclopropylethyl)[(1r,4r)-4-amino-4-methylcyclohexyl]amino]-1-oxo-3H-isoindol-2-yl}piperidine-2,6-dione]: in the assay on MV-4-11 cells (setting [4]), the IC50 is 100 to 1000 nM. Besides, at CK1α [2], the Dmax at 1 µM fell in the range of 50 to 75%.

For `C[C@]1(N)CC[C@@H](N(CCC2CC2)c2cccc3c2CN(C2CCC(=O)NC2=O)C3=O)CC1` (stereo partly shown) [Compound 635, 3-{4-[(2-cyclopropylethyl)[(1s,4s)-4-amino-4-methylcyclohexyl]amino]-1-oxo-3H-isoindol-2-yl}piperidine-2,6-dione], the IC50 with MV-4-11 cells (setting [4]) was < 100 nM. Besides, the Dmax at 1 µM on CK1α [2] was > 75%.

On to `O=C1CCC(N2Cc3c(cccc3N(CCCCC(F)(F)F)[C@H]3CC[C@H](NCCC(F)(F)F)CC3)C2=O)C(=O)N1` (stereo partly shown) [Compound 636, 3-(1-oxo-4-{[(1r,4r)-4-[(3,3,3-trifluoropropyl)amino]cyclohexyl](5,5,5-trifluoropentyl)amino}-3H-isoindol-2-yl)piperidine-2,6-dione; trifluoroacetate], for which the IC50 with MV-4-11 cells (setting [4]) fell in the range of 100 to 1000 nM. For the same compound, the Dmax at 1 µM at CK1α [2] was > 75%.
